Measured values as given in US6589963B2, “Heterocyclic compounds and salts thereof and medicinal use of the same” (Kyoto Pharmaceutical Industries, Ltd., priority 1999, dated 2003).

Tests used:
[1] = system: male KK-A^y mice; assay: Hypoglycemic action (method A); type: in vivo, mouse; settings: 4 consecutive days, non-fasting, about 24 hours after final administration, vs control group
Description: (§1) The glucose level in the plasma was measured using a commercially available assay kit (glucose CII-test WAKO, Wako Pure Chemical Industries, Ltd.). The mice were grouped (5 mice per group) into a control group and an administration group, such that the mean and the standard deviation of the glucose level in the plasma of each group were nearly the same. Each test compound was suspended or dissolved in 5% gum arabic solution and administered orally to the administration group for 4 consecutive days from the next day. The 5% gum arabic solution was orally administered to the control group. Blood was drawn from the tail vein under a non-fasting state about 24 hours after the final administration and the glucose level in the plasma was measured. The decrease in the plasma glucose level was calculated from the following formula.
Decrease (%) in plasma glucose level=[(mean plasma glucose level of control group−mean plasma glucose level of test compound administration group)/mean plasma glucose level of control group]×100

[2] = system: male KK-A^y mice; assay: Hypotriglyceridemic action; type: in vivo, mouse; settings: 4 consecutive days, non-fasting, about 24 hours after final administration, vs control group
Description: as §1, with “triglyceride” for “glucose”, “(triglyceride G-test” for “(glucose CII-test”
Decrease (%) in plasma triglyceride level=[(mean plasma triglyceride level of control group−mean plasma triglyceride level of test compound administration group)/mean plasma triglyceride level of control group]×100

[3] = system: 3T3-L1 cells; assay: Triglyceride accumulation promoting action in 3T3-L1 cells; type: cell-based; settings: 10^−7 M test compound with 10 ng/ml insulin, 4 days; relative to control
Description: A culture medium of 80% confluent 3T3-L1 cells was removed and the cells were dissociated with 0.25% trypsin-EDTA solution. 5% FBS-DMEM (the same amount as the removed medium) was added and the obtained cell suspension was centrifuged at 25° C., 100×g for 1 min to give cell sediment and the supernatant was removed. The cells were re-suspended in a suitable amount of 5% FBS-DMEM medium and the cells were counted. 5% FBS-DMEM medium was added to adjust the concentration to 1×10^5 cells/ml and the mixture was dispensed by 1 ml to a 24 well plate. The cells were cultured with aeration of 5% CO2 at 37° C. for 2 days. Upon confirmation of a post-confluent state, the culture supernatant was changed to a medium containing 0.5 mM-IBMX, and the cells were cultured for 2 days. Then, the medium was changed to a medium containing 10 ng/ml insulin and 10^−7 M test compound and the cells were cultured further for 4 days. After removing the culture supernatant, the cells were lysed in a 0.1% SDS solution and the triglyceride amount was measured. The triglyceride accumulation (%) due to the potentiation of insulin activity by the test compound was calculated from the following formula.
[(triglyceride amount with addition of test compound−triglyceride amount of control)/triglyceride amount of control]×100

| Compound | Decrease (%) in plasma glucose level ([1]; dose 30 mg/kg orally) | Decrease (%) in plasma triglyceride level ([2]; dose 30 mg/kg orally) | further results |
| --- | --- | --- | --- |
| 7-[2-(5-Methyl-2-phenyloxazol-4-yl)ethoxy]-2-(4-pentenoyl)-1,2,3,4-tetrahydroisoquinoline-(3S)-carboxylic acid [Example 44] | 48.0% | 19.1% | – |
| Cc1oc(-c2ccccc2)nc1CCOc1ccc2c(c1)CC(C(=O)O)N(Cc1ccccc1)C2 (racemic) [Example 72, 2-Benzyl-6-[2-(5-methyl-2-phenyloxazol-4-yl)ethoxy]-1,2,3,4-tetrahydroisoquinoline-(3RS)-carboxylic acid] | 15.9% | 24.0% | – |
| Cc1oc(-c2ccccc2)nc1CCOc1ccc2c(c1)CN(C)[C@H](C(=O)O)C2 [Example 4, 2-Methyl-7-[2-(5-methyl-2-phenyloxazol-4-yl)ethoxy]-1,2,3,4-tetrahydroisoquinoline-(3S)-carboxylic acid] | – | – | Decrease (%) in plasma triglyceride level ([2]; dose 10 mg/kg orally): 14.3% |
| Cc1oc(-c2ccccc2)nc1CCOc1ccc2c(c1)CN(CC1CCCCC1)[C@H](C(=O)O)C2 [Example 8, 2-Cyclohexylmethyl-7-[2-(5-methyl-2-phenyloxazol-4-yl)ethoxy]-1,2,3,4-tetrahydroisoquinoline-(3S)-carboxylic acid] | – | – | Triglyceride accumulation (%) [3]: 275.5% |
| CN(CCOc1ccc2c(c1)CN(Cc1ccccc1)[C@H](C(=O)[O-])C2)c1ccccn1.[Na+] [Example 11, Sodium 2-benzyl-7-[2-(N-methyl-N-(pyridin-2-yl)amino)ethoxy]-1,2,3,4-tetrahydroisoquinoline-(3S)-carboxylate] | – | – | Decrease (%) in plasma triglyceride level ([2]; dose 10 mg/kg orally): 11.2% |
| CCc1ccc(CCOc2ccc3c(c2)CN(Cc2ccccc2)[C@H](C(=O)[O-])C3)nc1.[Na+] [Example 12, Sodium 2-benzyl-7-[2-(5-ethyl-pyridin-2-yl)ethoxy]1,2,3,4-tetrahydroisoquinoline-(3S)-carboxylate] | – | – | Decrease (%) in plasma glucose level ([1]; dose 10 mg/kg orally): 12.0%; Decrease (%) in plasma triglyceride level ([2]; dose 10 mg/kg orally): 22.9% |
| Cc1ccc(CN2Cc3cc(OCCc4nc(-c5ccccc5)oc4C)ccc3C[C@H]2C(=O)O)cc1 [Example 18, 2-(4-Methylbenzyl)-7-[2-(5-methyl-2-phenyloxazol-4-yl)ethoxy]-1,2,3,4-tetrahydroisoquinoline-(3S)-carboxylic acid] | 39.7% | 45.5% | – |
| Cc1oc(C(C)C)nc1CCOc1ccc2c(c1)CN(Cc1ccccc1)[C@H](C(=O)O)C2 [Example 34, 2-Benzyl-7-[2-(5-methyl-2-isopropyloxazol-4-yl)ethoxy]-1,2,3,4-tetrahydroisoquinoline-(3S)-carboxylic acid] | 23.5% | 17.3% | – |
| CCCCN1Cc2cc(OCCc3nc(-c4ccccc4)oc3C)ccc2C[C@H]1C(=O)O [Example 35, 2-Butyl-7-[2-(5-methyl-2-phenyloxazol-4-yl)ethoxy]-1,2,3,4-tetrahydroisoquinoline-(3S)-carboxylic acid] | 22.1% | 12.4% | – |
| CC(C)=Cc1nc(CCOc2ccc3c(c2)CN(Cc2ccccc2)[C@H](C(=O)O)C3)c(C)o1 [Example 36, 2-Benzyl-7-{2-[5-methyl-2-(2-methylpropenyl)oxazol-4-yl]ethoxy}-1,2,3,4-tetrahydroisoquinoline-(3S)-carboxylic acid] | 28.4% | 13.7% | – |
| C=CCCc1nc(CCOc2ccc3c(c2)CN(Cc2ccccc2)[C@H](C(=O)O)C3)c(C)o1 [Example 37] | 11.1% | – | Triglyceride accumulation (%) [3]: 277.3% |
| C=CCN1Cc2cc(OCCc3nc(-c4ccccc4)oc3C)ccc2C[C@H]1C(=O)O [Example 38, 2-Allyl-7-[2-(5-methyl-2-phenyloxazol-4-yl)ethoxy]-1,2,3,4-tetrahydroisoquinoline-(3S)-carboxylic acid] | 28.0% | 30.0% | – |
| CCCCC(=O)N1Cc2cc(OCCc3nc(-c4ccccc4)oc3C)ccc2C[C@H]1C(=O)O [Example 43, 7-[2-(5-Methyl-2-phenyloxazol-4-yl)ethoxy]-2-pentanoyl-1,2,3,4-tetrahydroisoquinoline-(3S)-carboxylic acid] | 27.5% | 20.9% | – |
| CC(C)(CCOc1ccc2c(c1)CN(Cc1ccccc1)[C@H](C(=O)O)C2)c1ccccc1 [Example 49, 2-Benzyl-7-(3-methyl-3-phenylbutoxy)-1,2,3,4-tetrahydroisoquinoline-(3S)-carboxylic acid] | 11.1% | 17.0% | – |
| CC(C)(CCOc1ccc2c(c1)CN(Cc1ccccc1)[C@H](C(=O)O)C2)Cc1ccccc1 [Example 50, 2-Benzyl-7-(3,3-dimethyl-4-phenylbutoxy)-1,2,3,4-tetrahydroisoquinoline-(3S)-carboxylic acid] | 11.4% | 35.7% | – |
| CC(C)c1nc2ccc(COc3ccc4c(c3)CN(Cc3ccccc3)[C@H](C(=O)O)C4)cc2o1 [Example 51, 2-Benzyl-7-(2-isopropylbenzoxazol-6-yl)methoxy-1,2,3,4-tetrahydroisoquinoline-(3S)-carboxylic acid] | 20.0% | 10.7% | – |
| CC(C)(C)c1nc2ccc(COc3ccc4c(c3)CN(Cc3ccccc3)[C@H](C(=O)O)C4)cc2o1 [Example 52, 2-Benzyl-7-(2-tert-butylbenzoxazol-6-yl)methoxy-1,2,3,4-tetrahydroisoquinoline-(3S)-carboxylic acid] | 26.3% | 26.6% | – |
| Cc1oc(-c2ccccc2)nc1CCOc1ccc2c(c1)CN(Cc1ccncc1)[C@H](C(=O)[O-])C2.[Na+] [Example 56, Sodium 7-[2-(5-methyl-2-phenyloxazol-4-yl)ethoxy]-2-(pyridin-4-ylmethyl)-1,2,3,4-tetrahydroisoquinoline-(3S)-carboxylate] | – | 14.0% | – |
| COC(=O)[C@@H]1Cc2ccc(OCCc3nc(-c4ccccc4)oc3C)cc2CN1Cc1ccccc1 [Example 58, Methyl 2-benzyl-7-[2-(5-methyl-2-phenyloxazol-4-yl)ethoxy]-1,2,3,4-tetrahydroisoquinoline-(3S)-carboxylate] | 19.1% | 24.7% | – |
| Cc1oc(C2CC2)nc1CCOc1ccc2c(c1)CN(Cc1ccccc1)[C@H](C(=O)O)C2 [Example 59, 2-Benzyl-7-[2-(2-cyclopropyl-5-methyloxazol-4-yl)ethoxy]-1,2,3,4-tetrahydroisoquinoline-(3S)-carboxylic acid] | – | 13.7% | – |
| CCC=Cc1nc(CCOc2ccc3c(c2)CN(Cc2ccccc2)[C@H](C(=O)O)C3)c(C)o1 [Example 62, 2-Benzyl-7-{2-[2-(1-butenyl)-5-methyloxazol-4-yl]ethoxy}-1,2,3,4-tetrahydroisoguinoline-(3S)-carboxylic acid] | – | – | Triglyceride accumulation (%) [3]: 327.8% |
| Cc1oc(-c2ccccc2)nc1CCOc1ccc2c(c1)CN(CC(=O)O)[C@H](C(=O)O)C2 [Example 69, 2-Carboxymethyl-7-[2-(5-methyl-2-phenyloxazol-4-yl)ethoxy]-1,2,3,4-tetrahydroisoquinoline-(3S)-carboxylic acid] | 12.5% | 15.2% | – |
| CCOC(=O)CCCN1Cc2cc(OCCc3nc(-c4ccccc4)oc3C)ccc2C[C@H]1C(=O)O [Example 71, 2-[3-(Ethoxycarbonyl)propyl]-7-[2-(5-methyl-2-phenyloxazol-4-yl)ethoxy]-1,2,3,4-tetrahydroisoquinoline-(3S)-carboxylic acid] | 10.5% | – | – |
| CC(=O)c1cccc(CN2Cc3cc(OCCc4nc(-c5ccccc5)oc4C)ccc3C[C@H]2C(=O)O)c1 [Example 73, 2-(3-Acetylbenzyl)-7-[2-(5-methyl-2-phenyloxazol-4-yl)ethoxy]-1,2,3,4-tetrahydroisoquinoline-(3S)-carboxylic acid] | 14.8% | 15.4% | – |
